Reference: PubChem BioAssay (NCI)
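All cell lines were grown in 96-well plates and treated with compound for 48 hours. TGI: concentration producing complete growth inhibition.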

Columns and labels:
Assay in all cases: DTP human tumour cell line panel, 48 h
COLO 205 colon = test system: COLO 205 colon
SF-268 CNS = test system: SF-268 CNS
SN12C renal = test system: SN12C renal
M14 melanoma = test system: M14 melanoma
HS 578T breast = test system: HS 578T breast
CCRF-CEM leukemia = test system: CCRF-CEM leukemia
KM12 colon = test system: KM12 colon
SNB-19 CNS = test system: SNB-19 CNS
MDA-N = test system: MDA-N
HT29 colon = test system: HT29 colon
SK-OV-3 ovarian = test system: SK-OV-3 ovarian

Measured: TGI

O=S(=O)(c1ccccc1)n1c2cc3cccnc3nc2c2cccnc21
> 100 µM: all assays above
